# Structures can show the parent of a compound that is named as a salt.
# Experiments:
# [1] = clinical use, reference (24); cited from earlier work
# [2] = test system: E6E7/Ras MTE cells; assay: Clonogenic growth (colony formation); type: cell-based, mouse; details: 5 mM prodrugs, 10 mM DCA, 7 days, vs DMSO
# Experimental: FIG. 4 illustrates prodrugs AT-N4-001 and AT-N4-002 inhibiting cell proliferation and colony growth of E6E7/Ras MTE cells. (A) E6E7/Ras MTE cultures were treated with DMSO (Con), AT-N4-001, or AT-N4-[…] 002 at the indicated concentration for one day. Live cell number was then determined using a trypan blue exclusion assay. (B) E6E7/Ras MTE cells were seeded on 100-mm plate at 500 cells per plate (in triplicate). After one day, cells were treated as indicated and allowed to grow until colonies of untreated controls reached 50 or more cells (7 days). Plates were stained with Coomassie blue to visualize the colonies. (C) Quantification of colonies described in B. Colonies with more than 15 cells were counted.
# E6E7/Ras MTE cells are mouse tonsilar epithelial cells that have been transformed by HPV oncogenes E6 and E7 together with activated ras. They form tumors in mice and are a model of human HPV+HNSCC. These cells were treated in culture with either vehicle control (DMSO), AT-N4-001, or AT-N4-002 at concentrations of 1 mM, 2.5 mM and 5 mM for one day. Live cells were counted using a hemocytometer (FIG. 4A). […] The effects of the compounds on clonogenic growth of the cells were also tested. E6/E7/Ras MTE cells were seeded in 100 mm plates in triplicate, and the next day cells were treated with either vehicle control DMSO, 5 mM AT-N4-001, 5 mM AT-N4-002, or 10 mM DCA. DCA was used at a twice the concentration because the prodrugs each carry two molecules of DCA.
# [3] = test system: HPV+E6E7 Ras tumor (E6/E7/Ras MOEs cells); assay: Tumor response to cisplatin/radiation therapy (CRT), HPV positive HNSCC mouse model; type: in vivo, C57Bl/6 mice; details: oxamate 15 mg/mouse; for tumor's response to CRT (tumor volume, FIG. 18): DCA 6 mg/mouse, daily i.p. on weekdays from day 11, with CRT
# Experimental: FIG. 7 illustrates the effects of DCA plus oxamate on tumor growth (A) or on survival (B) with HPV+ model of HNSCC in wild-type C57Bl/6 mice. All mice received 3 rounds of cisplatin (0.132 mg/mouse) plus radiation (8 Gy/mouse) treatment (Tx) at weekly intervals starting […] after tumor initiation. Mice receiving DCA (6 mg/mouse) plus oxamate (15 mg/mouse) were treated every weekday, starting with the first chemoradiation treatment by i.p. injection.
# FIG. 8 illustrates a comparison of prodrugs to DCA plus oxamate on tumor growth (A) or on survival (B) with HPV+ model of HNSCC in wild-type C57Bl/6 mice. All mice received 3 rounds of CRT [cisplatin (0.132 mg/mouse) plus radiation (8 Gy/mouse) treatment (Tx) at weekly intervals starting 11 days after tumor initiation]. Mice receiving DCA (6 mg/mouse) plus oxamate (2.2 mg/mouse) were treated every weekday starting with the first chemoradiation treatment by i.p. injection. Mice treated with AT-N4-001 or AT-N4-002 prodrugs (7.6 mg/mouse) were treated on the same schedule as mice treated with DCA+oxamate.
# FIG. 18. The effects of DCA, oxamate, DCA plus oxamate on the responses of HPV+E6E7 Ras tumor to CRT. One million E6/E7/Ras MOEs cells were injected subcutaneously into the rear leg of wild-type C57Bl/6 mice. After 11 days, a treatment with DCA (6 mg/mouse) and oxamate (15 mg/mouse) were injected daily by i.p. on weekdays for the remainder of the experiment. All mice received three rounds of treatment with CRT (0.132 mg/mouse cisplatin and 8 Gy radiation, weekly starting at day 11). Tumor volume is mm^3.
# FIG. 19 depicts the effects of DCA plus oxamate vs the effects of prodrug 1 or prodrug 2 on the responses of HPV+E6E7 Ras tumor to CRT. Tumors were initiated by injecting 0.5×10^6 E6/E7/Ras MOEs cells. After 11 days, a treatment with DCA (6 mg/mouse) plus oxamate (2 mg/mouse), or prodrug 1 (7.6 mg/mouse), or prodrug 2 (7.6 mg/mouse) was initiated daily by i.p. on weekdays. The doses of DCA and oxamate were equal molar equivalents as would be released from the prodrugs. All mice received three rounds of treatment with CRT (0.132 mg/mouse cisplatin and 8 Gy radiation, weekly starting at day 11). Tumor volume is in mm^3.
# The effects of various treatments on tumor responses were carried out by examining whether the treatment could improve tumor's response to CRT with a HPV positive HNSCCs mouse model. CRT is a standard treatment for HPV-positive HNSCC in the clinic (46). […] Applicants also used this model to investigate the effects of lactate on CRT-induced immune-mediated cancer clearance (46) and DCA's effect on the tumor's response to CRT (unpublished data). The literature reported dosages of DCA and oxamate were used (6,23,52,53)(41).
# To study the effects of the prodrugs on tumor growth in vivo, C57Bl/6 immune-competent mice implanted with E6/E7/Ras MOEs cells were used as described previously (46). All experiments were performed in accordance with institutional and national guidelines and regulations with the protocol approved by the Animal Care and Use Committee at Sanford Research. Briefly, 1×10^6 tumor HPV+HNSCC cells were injected into the right subcutaneous flank of syngeneic male C57Bl/6 mice. Eleven days after tumor initiation, treatment was initiated daily on weekdays by i.p. injection of vehicle, DCA, Oxamate, DCA+oxamate, prodrug 1, or prodrug 2. All mice received three rounds of treatment with cisplatin/radiation therapy (CRT: 0.132 mg/mouse cisplatin and 8 Gy radiation, weekly starting at day 11). Tumor dimensions were measured weekly to monitor growth. Mice with tumors reaching a volume of 3000 mm^3 or becoming substantially emaciated were euthanized.
# To study the effects of the new prodrugs on tumor growth in vivo, C57Bl/6 immune-competent mice were used. Tumors were established on the right flank of the leg. After 11 days, treatment was initiated with daily i.p. injection of vehicle, AT-N4-001, or AT-N4-002. […]
# [4] = test system: E6E7/Ras cells; assay: Lactate secretion into culture medium, enzyme based assay; type: cell-based, mouse; details: 5 mM each, 4 hours
# Experimental: FIG. 5 illustrates the reduction of lactate secretion in cultured cells by prodrugs AT-N4-001 and AT-N4-002. E6E7Ras cells were plated in 100 mm dishes and grown to confluence. The medium was changed to bicarbonate-free DMEM-10% FBS with or without the indicated treatments (5 mM each). Four hours later the medium was collected and lactate was measured using an enzyme based assay from Eton Bioscience. Con indicates the control samples for the DCA and Oxamate samples. DMSO indicates the vehicle only control for the AT-N4-001 and AT-N4-002 prodrug samples.
# AT-N4-001 and AT-N4-002 should each release two molecules of DCA and one molecule of oxamate. Both DCA and oxamate are expected to reduce cellular lactate production. Therefore, we examined the changes in lactate after treatment of E6E7/Ras cells with the prodrugs. E6E7/Ras cells were seeded into 100 mm dishes and the next day treated with 5 mM AT-N4-001, 5 mM AT-N4-002, 5 mM DCA plus 5 mM oxamate, or 5 mM DCA alone. Culture medium was collected after 4 hours of treatment and lactate levels were determined (FIG. 5). […] To confirm the effects of these compounds on lactate production, the extra cellular acidification rate (ECAR) was measured using a Seahorse XF24 Extracellular Flux analyzer. Since lactate is transported from cells together with a proton, acidification of the culture medium (ECAR) is an estimate of lactate production and the glycolytic rate of cells. In the experiment shown in FIG. 6A, ECAR measurements were initiated in the absence of glucose. At point A, glucose was added and ECAR measurements continued. […] At point B, additional glucose along with vehicle (control), DCA plus oxamate, or AT-N4-002 was added. […] This is shown by a bar graph in FIG. 6B.
# [5] = biological target: PDK; details: reported (26); read-out: Ki value of DCA for PDK; cited from earlier work
# [6] = reference (44); cited from earlier work
# [7] = biological target: mammalian LDH; details: reference (47); read-out: Ki value of oxamate for mammalian LDH; cited from earlier work
# [8] = test system: nasopharyngeal carcinoma cells / normal nasopharyngeal epithelial cells; details: reference (44); cited from earlier work
SMILES,clinical safety and tolerability [1],colony size (FIG. 4B) [2],"tumor's response to CRT (tumor volume, FIG. 18) [3]","effectiveness of DCA versus oxamate in improving response to CRT ([3]; FIG. 18, DCA 6 mg/mouse, with CRT)","lactate production (culture medium, FIG. 5) [4]",Ki [5] [µM],tolerability in mice [6],Ki [7] [µM],nasopharyngeal carcinoma cell proliferation in vitro and in vivo [8],toxicity to normal nasopharyngeal epithelial cells in vitro [8]
"O=C([O-])C(Cl)Cl.[Na+] [DCA, dichloroacetic acid sodium salt, reference compound]",safe and well tolerated with relatively modest toxicities,approximately equal reductions in colony size,improved tumor's response to CRT,more effective than oxamate,reduces lactate production but to a lesser extent than the prodrugs,10 to 250,–,–,–,–
"NC(=O)C(=O)O [oxamate, oxamic acid sodium salt]",–,–,improved tumor's response to CRT,–,–,–,well tolerated,116,significant suppression,minimum toxicity

# From patent US9556113B2, “Combination uses of dichloroacetate and oxamate, and their prodrugs, for cancer treatment” (The South Dakota Board of Regents, priority 2014, dated 2017)
